Measured values as given in US11000065B2, “Aerosol generation and exposure system” (CHARLES R. DREW UNIVERSITY OF MEDICINE AND SCIENCE, priority 2016, dated 2021).

Test: Electronic cigarette aerosol exposure experiment on mice: plasma concentrations
Details: 9 mice; inhalation of aerosol from one electronic cigarette, 4 seconds per puff, one puff every 20 sec, 10 puffs per episode, one episode every 30 min, 4 episodes in 2 hours

Compound: CN1CCCC1c1cccnc1 (stereo not shown) [nicotine]
- Mouse plasma nicotine concentration (mean±SD): 35.3 ± 20.0 ng/mL
